# In PMC9194863, “A novel small-molecule selective activator of homomeric GIRK4 channels” (The Journal of Biological Chemistry, 2022):
# Substitutions are numbered along the chain they refer to.
# Tests used:
# Experiment in all cases: two-electrode voltage clamp, Xenopus oocytes
# Format in all cases: cell-based
# [1] = biological target: T1, GIRK4 homomeric channel (GIRK4, G4) (Homo sapiens, UniProt P48544, L77I); conditions: activator, high potassium ND96K
# T1 construct: gene KCNJ5; full-length GIRK4 in pGEMSH vector, homotetramer, expressed in Xenopus laevis oocytes
# T1 sequence (P48544 1-419 L77I): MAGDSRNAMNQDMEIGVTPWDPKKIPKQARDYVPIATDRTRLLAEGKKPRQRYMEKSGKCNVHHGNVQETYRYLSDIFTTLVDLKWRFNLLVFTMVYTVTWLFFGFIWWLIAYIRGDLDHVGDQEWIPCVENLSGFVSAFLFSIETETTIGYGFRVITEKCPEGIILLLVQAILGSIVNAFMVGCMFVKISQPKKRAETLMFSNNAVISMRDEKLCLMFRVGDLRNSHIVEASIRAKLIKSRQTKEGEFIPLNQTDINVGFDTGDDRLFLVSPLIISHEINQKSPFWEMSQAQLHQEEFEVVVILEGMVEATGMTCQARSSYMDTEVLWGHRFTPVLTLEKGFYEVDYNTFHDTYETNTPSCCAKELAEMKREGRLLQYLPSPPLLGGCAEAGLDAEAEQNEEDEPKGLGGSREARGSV
# [2] = biological target: T2, GIRK4 homomeric channel (GIRK4, G4) (Homo sapiens, UniProt P48544, I177V); conditions: activator, high potassium ND96K
# T2 construct: gene KCNJ5; full-length GIRK4 in pGEMSH vector, homotetramer, expressed in Xenopus laevis oocytes
# T2 sequence (P48544 1-419 I177V): T1 sequence (P48544 1-419 L77I) with I77L, I177V
# [3] = biological target: T3, GIRK4 homomeric channel (GIRK4, G4) (Homo sapiens, UniProt P48544, S75T); conditions: activator, high potassium ND96K
# T3 construct: gene KCNJ5; full-length GIRK4 in pGEMSH vector, homotetramer, expressed in Xenopus laevis oocytes
# T3 sequence (P48544 1-419 S75T): T1 sequence (P48544 1-419 L77I) with S75T, I77L
# [4] = biological target: T4, GIRK4 homomeric channel (GIRK4, G4) (Homo sapiens, UniProt P48544, F181A); conditions: activator, high potassium ND96K
# T4 construct: gene KCNJ5; full-length GIRK4 in pGEMSH vector, homotetramer, expressed in Xenopus laevis oocytes
# T4 sequence (P48544 1-419 F181A): T1 sequence (P48544 1-419 L77I) with I77L, F181A
# [5] = biological target: T5, GIRK4 homomeric channel (GIRK4, G4) (Homo sapiens, UniProt P48544)
# T5 construct: gene KCNJ5; full-length GIRK4 in pGEMSH vector, homotetramer, expressed in Xenopus laevis oocytes
# T5 sequence (P48544 1-419): T1 sequence (P48544 1-419 L77I) with I77L
# [6] = biological target: T6, GIRK4 homomeric channel (GIRK4, G4) (Homo sapiens, UniProt P48544, L90A); conditions: activator, high potassium ND96K
# T6 construct: gene KCNJ5; full-length GIRK4 in pGEMSH vector, homotetramer, expressed in Xenopus laevis oocytes
# T6 sequence (P48544 1-419 L90A): T1 sequence (P48544 1-419 L77I) with I77L, L90A
# [7] = biological target: T7, GIRK4 homomeric channel (GIRK4, G4) (Homo sapiens, UniProt P48544, S75A); conditions: activator, high potassium ND96K
# T7 construct: gene KCNJ5; full-length GIRK4 in pGEMSH vector, homotetramer, expressed in Xenopus laevis oocytes
# T7 sequence (P48544 1-419 S75A): T1 sequence (P48544 1-419 L77I) with S75A, I77L
# GIRK2∗ (GIRK2:E152D) [8] = biological target: T8, GIRK2∗ (GIRK2:E152D) (Mus musculus, UniProt P48542, I82L/E152D); conditions: activator, high potassium ND96K
# T8 construct: gene Kcnj6; GIRK2 E152D in pXOOM vector, homotetramer, expressed in Xenopus laevis oocytes
# T8 sequence (P48542 1-425 I82L/E152D): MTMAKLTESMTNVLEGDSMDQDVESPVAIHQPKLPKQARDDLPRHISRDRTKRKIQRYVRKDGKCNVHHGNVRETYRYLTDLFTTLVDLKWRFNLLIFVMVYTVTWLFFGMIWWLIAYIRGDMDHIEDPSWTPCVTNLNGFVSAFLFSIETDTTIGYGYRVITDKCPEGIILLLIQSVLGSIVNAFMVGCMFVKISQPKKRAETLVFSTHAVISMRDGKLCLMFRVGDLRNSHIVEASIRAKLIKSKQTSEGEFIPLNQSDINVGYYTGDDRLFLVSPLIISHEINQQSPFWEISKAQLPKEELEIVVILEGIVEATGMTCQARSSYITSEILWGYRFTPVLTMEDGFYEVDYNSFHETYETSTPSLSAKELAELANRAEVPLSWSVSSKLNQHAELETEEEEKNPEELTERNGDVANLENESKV
# [9] = biological target: T9, GIRK4 homomeric channel (GIRK4, G4) (Homo sapiens, UniProt P48544, G247R); conditions: activator, high potassium ND96K
# T9 construct: gene KCNJ5; full-length GIRK4 in pGEMSH vector, homotetramer, expressed in Xenopus laevis oocytes
# T9 sequence (P48544 1-419 G247R): T1 sequence (P48544 1-419 L77I) with I77L, G247R
# GIRK2∗ (GIRK2:E152D) [10] = biological target: T10, GIRK2∗ (GIRK2:E152D) (Mus musculus, UniProt P48542, T80S/I82L/E152D); conditions: activator, high potassium ND96K
# T10 construct: gene Kcnj6; GIRK2 E152D in pXOOM vector, homotetramer, expressed in Xenopus laevis oocytes
# T10 sequence (P48542 1-425 T80S/I82L/E152D): T8 sequence (P48542 1-425 I82L/E152D) with T80S
structure (smiles),measurement,setting,value
"COc1ccc(C(=O)CC2(O)C(=O)N(Cc3cccc4ccccc34)c3ccccc32)cc1OC (stereo not shown) [3hi2one-G4, 3-[2-(3,4-dimethoxyphenyl)-2-oxoethyl]-3-hydroxy-1-(1-naphthylmethyl)-1,3-dihydro-2H-indol-2-one]",I/Ibasal at 30 μM,[1],"GIRK4:I177V, GIRK4:F181A, and GIRK4:I190A showed reduced 3hi2one-G4–induced currents"
same,I/Ibasal at 30 μM,[2],"GIRK4:I177V, GIRK4:F181A, and GIRK4:I190A showed reduced 3hi2one-G4–induced currents"
same,I/Ibasal at 30 μM,[3],whereas a Thr mutation significantly but partially affected the compound’s effectiveness
same,I/Ibasal at 30 μM,[4],"GIRK4:I177V, GIRK4:F181A, and GIRK4:I190A showed reduced 3hi2one-G4–induced currents"
same,EC50,[5],12.7 µM
same,I/Ibasal at 30 μM,[6],"GIRK4:I177V, GIRK4:F181A, and GIRK4:I190A showed reduced 3hi2one-G4–induced currents"
same,I/Ibasal at 30 μM,[7],Mutation of residue S75 to Ala did not yield a significant change in the ability
same,current at 30 μM,GIRK2∗ (GIRK2:E152D) [8],GIRK2∗:I82L and GIRK2∗:T80S/I82L but not GIRK2:T80S could be activated by 3hi2one-G4
same,current at 30 μM,[9],"GIRK4:G247R, which is functional, was robustly activated by 3hi2one-G4"
same,current at 30 μM,GIRK2∗ (GIRK2:E152D) [10],GIRK2∗:I82L and GIRK2∗:T80S/I82L but not GIRK2:T80S could be activated by 3hi2one-G4
